Results published in US20120129817A1, “COMBINATION TREATMENT FOR DIABETES MELLITUS” (NYCOMED GMBH, priority 2006, published 2012).
Structures can show the parent of a compound that is named as a salt.

How the values were obtained:
db/db-mice [1] = assay: HbA1c levels in db/db-mice after 4 weeks of once daily oral treatment (Micromat II Hemoglobin A1c Test); type: in vivo; details: female obese db/db-mice; Compound A 3 mg/kg orally, RIMONABANT Hydrochloride 10 mg/kg orally or combination of both, once daily for 4 weeks; vs vehicle; FIG. 1
Description: (§1) Aim of the study was to investigate the influence of a combination of RIMONABANT Hydrochloride and Compound A on HbA1c and glucose tolerance.
(§2) Female obese db/db-mice (BKS.Cg/BomTac-m+/+Lepr^db), supplied by Taconic Europe (Denmark) were used at the age of 10-11 weeks. Animals were kept under controlled conditions (22° C., 12 h light/12 h dark cycle) and received standard laboratory chow and water ad libitum. For each group a number of 15 animals were used.
(§3) Animals were treated with Compound A [3 mg/kg orally, suspended in methocel (hypromellose, 4% aequous solution)], RIMONABANT Hydrochloride [10 mg/kg orally, suspended in methocel (hypromellose, 4% aequous solution), Sequoia Research Products, Pangbourne, UK] or a combination of both once daily for 4 weeks. Vehicle treated animals served as control. HbA1c levels were analyzed using the Micromat II Hemoglobin A1c Test (Bio-Rad Laboratories GmbH, 80939 München, Germany). An intraperitoneal glucose tolerance test was performed in 24 h fasted animals. A glucose bolus (1 g/kg body weight) was administered intraperitoneally. Blood glucose was monitored for the following time points: t=−120 min, 0 min (before glucose administration), 30 min, 60 min, 90 min, 120 min (after glucose administration). Blood was taken by tail-tip-bleeding (5 μl) and was determined from hemolysate using an analyzing machine (Biosen S_line, EKF Diagnostic, Germany). […]

db/db-mice [2] = assay: Intraperitoneal glucose tolerance test in 24 h fasted db/db-mice after 4 weeks of treatment; type: in vivo; details: female obese db/db-mice, glucose bolus 1 g/kg i.p., Compound A 3 mg/kg orally, RIMONABANT Hydrochloride 10 mg/kg orally or combination of both, once daily for 4 weeks, FIG. 2
Description: as §1, §2, §3

SMILES | effect on HbA1c (db/db-mice [1]) | effect on glucose tolerance (db/db-mice [2])
Cc1c(C(=O)NN2CCCCC2)nn(-c2ccc(Cl)cc2Cl)c1-c1ccc(Cl)cc1 [RIMONABANT Hydrochloride, 5-(4-chlorophenyl)-1-(2,4-dichlorophenyl)-4-methyl-N-piperidin-1-yl-1H-pyrazole-3-carboxamide] | no effect | no effect
CCOc1cc2c(cc1OC)C(c1ccc(OC)nc1OC)=N[C@@H]1CC[C@@H](O)C[C@H]21 [Compound A, (2R,4aR,10bR)-6-(2,6-Dimethoxy-pyridin-3-yl)-9-ethoxy-8-methoxy-1,2,3,4,4a,10b-hexahydrophenanthridin-2-ol] | no effect | no effect
